Data as given in US12331044B2, “Inhibitors of histone deacetylase useful for the treatment or prevention of HIV infection” (Merck Sharp & Dohme LLC, priority 2018, dated 2025).
Like-named read-outs stand apart in the source and are kept apart here.

Columns and labels:
[1] = molecular target: human HDAC8 (Homo sapiens (Human), UniProt Q9BY41); assay: HDAC8 inhibition assay (modified FLUOR DE LYS, 384-well); type: biochemical; conditions: […] nM enzyme, 200 μM substrate BML-KI178, 3 h pre-incubation; read-out: HDAC8 IC50
Chain of human HDAC8 (Q9BY41 whole entry): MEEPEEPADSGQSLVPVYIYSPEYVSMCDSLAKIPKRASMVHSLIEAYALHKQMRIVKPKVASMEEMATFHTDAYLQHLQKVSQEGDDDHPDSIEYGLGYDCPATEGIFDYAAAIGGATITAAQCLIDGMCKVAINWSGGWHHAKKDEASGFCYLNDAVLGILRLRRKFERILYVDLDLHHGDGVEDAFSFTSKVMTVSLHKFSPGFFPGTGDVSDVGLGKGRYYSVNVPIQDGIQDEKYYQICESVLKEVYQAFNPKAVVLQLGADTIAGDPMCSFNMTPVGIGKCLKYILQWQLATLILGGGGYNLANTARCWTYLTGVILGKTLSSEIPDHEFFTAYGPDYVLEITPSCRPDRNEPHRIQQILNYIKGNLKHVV

[2] = tested on: KARN cells (Jurkat 2C4); assay: cells; conditions: Homo sapiens
Description: KARN Assay Cell Maintenance
KARN cells (Jurkat 2C4) were licensed from the laboratory of Dr. John Karn, Case Western Reserve University, School of Medicine. […] An atmosphere of 5% CO2 and 90% humidity was used for all culture work.
These flasks were returned to the incubator.
The cells were gently resuspended in assay media (30 ml) and pelleted again. […] The cells were counted using the ViCell (Beckman Coulter) and diluted as necessary. […] The plates were covered and returned to the incubator prior to compound addition.
The reference compounds, DMSO and SAHA were then added to the compound plate. […] The final high concentration for SAHA and the test compounds in the assays was 40 μM. The final DMSO concentration in all wells was 0.4%. The minimal induction reference compound used was DMSO and the maximal induction reference compound used was SAHA (2 μM final concentration in the assay).
Day 3: The luciferase detection reagent was prepared by transferring the contents of one bottle of Steady-Glo buffer to one bottle of Steady-Glo aubstrate (Steady-Glo Luciferase Assay System, Promega, catalog number E2520), followed by gently mixing until the substrate was thoroughly dissolved and the solution was equilibrated to room temperature. […] The Steady-Glo Reagent was added to the plates (30 μl/well), which were then covered with a black lid and incubated for 10 minutes at room temperature. The plates were then read for luminescence on an Envision (Perkin Elmer) using the ultrasensitive mode (US LUM), 0.1 counts per second and 384-well aperture. Luminescence counts in the DMSO reference wells were considered as 0% induction, while those in the 2 μM SAHA reference wells were considered as 100% induction. Dose response curves were plotted as test compound concentration (X-axis) vs. percent activation (Y-axis) using a 4-parameter fit based on the Levenberg-Marquardt algorithm.

[3] = molecular target: human HDAC3/SMRT heterodimer (Homo sapiens (Human), UniProt O15379); assay: biochemical
Chain of human HDAC3/SMRT heterodimer (O15379 whole entry): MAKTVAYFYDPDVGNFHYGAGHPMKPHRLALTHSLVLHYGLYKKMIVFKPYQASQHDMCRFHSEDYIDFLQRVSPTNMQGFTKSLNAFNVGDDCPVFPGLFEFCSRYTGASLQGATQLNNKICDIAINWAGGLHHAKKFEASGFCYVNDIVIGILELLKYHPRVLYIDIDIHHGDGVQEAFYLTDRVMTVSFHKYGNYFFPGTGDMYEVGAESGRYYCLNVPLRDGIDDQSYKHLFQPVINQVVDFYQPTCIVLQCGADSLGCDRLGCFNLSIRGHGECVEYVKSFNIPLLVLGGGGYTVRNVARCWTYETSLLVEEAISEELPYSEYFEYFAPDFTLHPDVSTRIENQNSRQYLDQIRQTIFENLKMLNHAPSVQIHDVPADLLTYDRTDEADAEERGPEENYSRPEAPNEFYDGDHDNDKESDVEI
Chain of human HDAC3/SMRT heterodimer (Q9Y618 1-899 partner): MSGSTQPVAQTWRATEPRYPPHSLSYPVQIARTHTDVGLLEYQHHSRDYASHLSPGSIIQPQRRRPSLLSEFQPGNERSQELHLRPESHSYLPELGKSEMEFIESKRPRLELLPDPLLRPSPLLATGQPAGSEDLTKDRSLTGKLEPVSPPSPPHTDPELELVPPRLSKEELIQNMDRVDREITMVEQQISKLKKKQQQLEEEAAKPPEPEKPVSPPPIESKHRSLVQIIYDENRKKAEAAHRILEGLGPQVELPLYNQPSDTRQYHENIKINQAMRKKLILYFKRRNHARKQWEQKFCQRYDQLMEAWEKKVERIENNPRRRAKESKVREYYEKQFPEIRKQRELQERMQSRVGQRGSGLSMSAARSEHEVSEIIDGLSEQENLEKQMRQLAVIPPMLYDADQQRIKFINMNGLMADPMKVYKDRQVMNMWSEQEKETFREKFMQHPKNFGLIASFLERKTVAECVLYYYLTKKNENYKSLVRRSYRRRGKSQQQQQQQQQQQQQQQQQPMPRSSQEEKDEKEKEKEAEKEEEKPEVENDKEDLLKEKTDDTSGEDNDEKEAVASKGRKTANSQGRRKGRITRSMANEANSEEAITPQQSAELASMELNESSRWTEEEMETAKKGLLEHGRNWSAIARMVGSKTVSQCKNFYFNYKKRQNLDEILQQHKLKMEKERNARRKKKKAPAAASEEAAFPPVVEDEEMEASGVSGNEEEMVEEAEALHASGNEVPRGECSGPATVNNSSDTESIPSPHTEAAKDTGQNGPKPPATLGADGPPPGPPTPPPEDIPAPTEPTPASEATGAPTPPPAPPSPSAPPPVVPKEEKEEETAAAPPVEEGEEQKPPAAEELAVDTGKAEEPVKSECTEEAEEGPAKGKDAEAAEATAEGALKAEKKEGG

[4] = molecular target: HDAC6 (Homo sapiens (Human), UniProt Q9UBN7); assay: biochemical
Chain of HDAC6 (Q9UBN7 whole entry): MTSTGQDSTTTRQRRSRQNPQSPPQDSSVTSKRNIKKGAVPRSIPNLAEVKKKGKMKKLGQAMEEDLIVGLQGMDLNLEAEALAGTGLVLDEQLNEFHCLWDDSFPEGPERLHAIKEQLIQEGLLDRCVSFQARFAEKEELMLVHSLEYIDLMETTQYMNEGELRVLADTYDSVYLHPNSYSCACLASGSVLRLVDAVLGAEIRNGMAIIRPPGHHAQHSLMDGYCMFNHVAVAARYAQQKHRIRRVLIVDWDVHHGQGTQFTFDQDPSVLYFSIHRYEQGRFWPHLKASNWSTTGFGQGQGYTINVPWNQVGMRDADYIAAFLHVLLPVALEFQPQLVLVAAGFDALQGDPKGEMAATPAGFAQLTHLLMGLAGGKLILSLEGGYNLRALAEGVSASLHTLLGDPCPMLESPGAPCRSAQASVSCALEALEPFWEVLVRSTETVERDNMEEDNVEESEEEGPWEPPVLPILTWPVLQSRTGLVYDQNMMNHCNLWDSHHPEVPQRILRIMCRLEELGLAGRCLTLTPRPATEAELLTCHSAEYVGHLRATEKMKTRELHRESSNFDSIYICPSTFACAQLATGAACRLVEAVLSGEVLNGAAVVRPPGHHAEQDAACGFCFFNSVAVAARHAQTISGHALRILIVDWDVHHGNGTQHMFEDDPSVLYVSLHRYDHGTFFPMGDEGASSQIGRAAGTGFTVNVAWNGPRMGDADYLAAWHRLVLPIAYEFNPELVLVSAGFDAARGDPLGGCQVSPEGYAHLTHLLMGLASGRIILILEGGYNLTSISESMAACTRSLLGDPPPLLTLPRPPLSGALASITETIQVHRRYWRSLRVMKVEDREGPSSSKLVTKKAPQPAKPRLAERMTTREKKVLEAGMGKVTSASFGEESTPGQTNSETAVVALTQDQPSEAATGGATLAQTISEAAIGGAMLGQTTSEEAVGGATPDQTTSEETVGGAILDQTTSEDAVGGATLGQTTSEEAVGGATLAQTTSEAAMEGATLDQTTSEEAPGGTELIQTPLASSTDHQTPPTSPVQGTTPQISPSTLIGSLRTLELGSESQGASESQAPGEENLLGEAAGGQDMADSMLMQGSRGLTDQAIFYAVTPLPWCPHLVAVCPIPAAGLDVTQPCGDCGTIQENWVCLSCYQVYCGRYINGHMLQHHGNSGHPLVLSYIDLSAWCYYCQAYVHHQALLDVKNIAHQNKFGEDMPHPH

[5] = molecular target: human HDAC1 (Homo sapiens (Human), UniProt Q13547); assay: biochemical
Chain of human HDAC1 (Q13547 whole entry): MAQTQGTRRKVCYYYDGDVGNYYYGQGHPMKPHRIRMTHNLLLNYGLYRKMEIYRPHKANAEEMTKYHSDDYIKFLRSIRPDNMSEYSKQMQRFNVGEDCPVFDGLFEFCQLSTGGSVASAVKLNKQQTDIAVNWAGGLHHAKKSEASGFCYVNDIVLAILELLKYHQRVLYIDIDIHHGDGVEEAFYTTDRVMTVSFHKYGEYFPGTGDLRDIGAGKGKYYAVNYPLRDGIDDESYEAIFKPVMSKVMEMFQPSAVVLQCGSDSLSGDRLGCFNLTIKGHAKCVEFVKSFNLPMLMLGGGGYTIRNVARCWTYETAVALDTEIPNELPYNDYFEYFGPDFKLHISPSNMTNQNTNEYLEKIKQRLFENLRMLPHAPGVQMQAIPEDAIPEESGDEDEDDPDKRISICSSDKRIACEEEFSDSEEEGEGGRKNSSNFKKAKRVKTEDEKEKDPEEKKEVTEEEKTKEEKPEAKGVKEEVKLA

[6] = molecular target: human HDAC2 (Homo sapiens (Human), UniProt Q92769); assay: HDAC2 inhibition assay (modified FLUOR DE LYS, 384-well); type: biochemical; conditions: […] nM enzyme, 40 μM substrate BML-KI104, 3 h pre-incubation; read-out: HDAC2 IC50
Chain of human HDAC2 (Q92769 whole entry): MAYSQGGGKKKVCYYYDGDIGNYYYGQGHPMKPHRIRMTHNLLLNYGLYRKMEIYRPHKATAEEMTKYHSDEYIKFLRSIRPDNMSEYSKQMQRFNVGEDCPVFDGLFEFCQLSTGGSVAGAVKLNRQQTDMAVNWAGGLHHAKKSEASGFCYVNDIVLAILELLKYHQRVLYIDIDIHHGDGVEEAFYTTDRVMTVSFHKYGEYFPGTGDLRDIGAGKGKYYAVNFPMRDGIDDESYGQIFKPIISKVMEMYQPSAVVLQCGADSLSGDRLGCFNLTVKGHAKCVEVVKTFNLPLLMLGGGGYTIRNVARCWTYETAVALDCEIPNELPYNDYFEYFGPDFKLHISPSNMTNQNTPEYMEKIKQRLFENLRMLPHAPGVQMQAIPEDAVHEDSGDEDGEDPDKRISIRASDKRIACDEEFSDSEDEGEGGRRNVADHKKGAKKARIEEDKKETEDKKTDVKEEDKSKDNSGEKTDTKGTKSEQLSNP

[7] = read-out: Karn EC50 nM 0.1% NHS, 0.1% normal human serum, luciferase induction, 2 μM SAHA = 100%
[8] = read-out: Karn EC50 nM 5% NHS, 5% normal human serum, luciferase induction, 2 μM SAHA = 100%
[9] = read-out: Karn EC50 nM 0.1% NHS

Row | Structure (SMILES) | IC50 [1] | EC50 [2, 7] | EC50 [2, 8] | IC50 [3] | IC50 [4] | IC50 [5] | IC50 [6] | EC50 [2, 9] | EC50 ([2]; read-out: Karn EC50 nM 5% NHS)
1 | CCn1ccc2cc(-c3cnc([C@H](CCCCCC(=O)c4ccon4)NC(=O)CN(C)C)[nH]3)c(OC)cc2c1=O [Example 94, (S)-2-(dimethylamino)-N-(1-(5-(2-ethyl-7-methoxy-1-oxo-1,2-dihydroisoquinolin-6-yl)-1H-imidazol-2-yl)-7-(isoxazol-3-yl)-7-oxoheptyl)acetamide] | 5.2 nM | 3.8 nM | 8.8 nM | 0.24 nM | 20000 nM | 0.26 nM | 1 nM | – | –
2 | CN(C)CC(=O)N[C@@H](CCCCCC(=O)c1ncco1)c1ncc(-c2ccc3nccnc3c2)[nH]1 [Example 95, (S)-2-(dimethylamino)-N-(7-(oxazol-2-yl)-7-oxo-1-(5-(quinoxalin-6-yl)-1H-imidazol-2-yl)heptyl)acetamide] | 68 nM | 63 nM | 84 nM | 2.2 nM | 700 nM | 1.3 nM | 8.6 nM | – | –
3 | CCN1CCC2(CC1)C[C@@H]2C(=O)N[C@@H](CCCCCC(=O)c1ncco1)c1[nH]c(-c2ccc(F)cc2)nc1Cl [Example 97, (S)-N-((S)-1-(4-chloro-2-(4-fluorophenyl)-1H-imidazol-5-yl)-7-(oxazol-2-yl)-7-oxoheptyl)-6-ethyl-6-azaspiro[2.5]octane-1-carboxamide] | 210 nM | 4.1 nM | 11 nM | 0.066 nM | 19000 nM | 0.049 nM | 0.38 nM | – | –
4 | COc1cc2nc(C)ccc2cc1-c1cnc([C@H](CCCCCC(=O)c2ncco2)NC(=O)C2CCN(C)CC2)[nH]1 [Example 98, (S)-N-(1-(5-(7-methoxy-2-methylquinolin-6-yl)-1H-imidazol-2-yl)-7-(oxazol-2-yl)-7-oxoheptyl)-1-methylpiperidine-4-carboxamide] | 25 nM | – | – | 0.64 nM | 1000 nM | 0.34 nM | 3.6 nM | 58 nM | 170 nM
5 | COc1cc2nc(C)ccc2cc1-c1cnc([C@H](CCCCCC(=O)c2ncco2)NC(=O)C2CN(C)C2)[nH]1 [Example 99, (S)-N-(1-(5-(7-methoxy-2-methylquinolin-6-yl)-1H-imidazol-2-yl)-7-(oxazol-2-yl)-7-oxoheptyl)-1-methylazetidine-3-carboxamide] | 56 nM | – | – | 0.47 nM | 1300 nM | 0.3 nM | 2.6 nM | 77 nM | 73 nM
6 | COc1cc2nc(C)ccc2cc1-c1cnc([C@H](CCCCCC(=O)c2ncco2)NC(=O)C2CN(C)C2)o1 [Example 100, (S)-N-(1-(5-(7-methoxy-2-methylquinolin-6-yl)oxazol-2-yl)-7-(oxazol-2-yl)-7-oxoheptyl)-1-methylazetidine-3-carboxamide] | 130 nM | – | – | 0.28 nM | 620 nM | 0.45 nM | 1.3 nM | 19 nM | 21 nM
7 | CN1CC(C(=O)N[C@@H](CCCCCC(=O)c2ncco2)c2[nH]c(-c3ccc(F)cc3)nc2Cl)C1 [Example 101, (S)-N-(1-(4-chloro-2-(4-fluorophenyl)-1H-imidazol-5-yl)-7-(oxazol-2-yl)-7-oxoheptyl)-1-methylazetidine-3-carboxamide] | 340 nM | 27 nM | 22 nM | 1.5 nM | ≥ 45000 nM | 1.5 nM | 1.5 nM | – | –
8 | CN1CC(C(=O)N[C@@H](CCCCCC(=O)c2ccon2)c2[nH]c(-c3ccccc3F)nc2Cl)C1 [Example 105, (S)-N-(1-(4-chloro-2-(2-fluorophenyl)-1H-imidazol-5-yl)-7-(isoxazol-3-yl)-7-oxoheptyl)-1-methylazetidine-3-carboxamide] | 29 nM | 2.8 nM | 3.5 nM | 0.046 nM | 8500 nM | 0.12 nM | 0.37 nM | – | –
9 | COc1cc2nc(C)ccc2cc1-c1cnc([C@H](CCCCCC(=O)c2ccon2)NC(=O)C2CN(C)C2)o1 [Example 108, (S)-N-(7-(isoxazol-3-yl)-1-(5-(7-methoxy-2-methylquinolin-6-yl)oxazol-2-yl)-7-oxoheptyl)-1-methylazetidine-3-carboxamide] | 5.8 nM | 6.4 nM | 6.1 nM | 0.19 nM | > 900 nM | 0.18 nM | 0.35 nM | – | –
10 | COc1cc2nc(C)ccc2cc1-c1cnc([C@H](CCCCCC(=O)c2ccon2)NC(=O)[C@H]2CC23CCN(C)CC3)[nH]1 [Example 110, (S)-N-((S)-7-(isoxazol-3-yl)-1-(5-(7-methoxy-2-methylquinolin-6-yl)-1H-imidazol-2-yl)-7-oxoheptyl)-6-methyl-6-azaspiro[2.5]octane-1-carboxamide] | 2.7 nM | 11 nM | 11 nM | 0.18 nM | 2500 nM | 0.18 nM | 0.87 nM | – | –
11 | COc1ncccc1-c1cnc(C(CCCCCC(=O)c2ncco2)NC(=O)[C@H]2CC23CCN(C)CC3)o1 (stereo partly drawn) [Example 114, (1S)-N-(1-(5-(2-methoxypyridin-3-yl)oxazol-2-yl)-7-(oxazol-2-yl)-7-oxoheptyl)-6-methyl-6-azaspiro[2.5]octane-1-carboxamide] | > 900 nM | 3400 nM | 4200 nM | 13 nM | > 900 nM | 26 nM | 120 nM | – | –
12 | Cc1ccc2cc(-c3cnc([C@H](CCCCCC(=O)c4ncco4)NC(=O)C4=NOC5(CCN(C)CC5)C4)o3)ccc2n1 [Example 116, (S)-8-methyl-N-(1-(5-(2-methylquinolin-6-yl)oxazol-2-yl)-7-(oxazol-2-yl)-7-oxoheptyl)-1-oxa-2,8-diazaspiro[4.5]dec-2-ene-3-carboxamide] | 250 nM | 95 nM | 120 nM | 1.5 nM | 4100 nM | 4.8 nM | 9.7 nM | – | –
13 | COc1cc2nc(C)ccc2cc1-c1cnc([C@H](CCCCCC(=O)c2ncco2)NC(=O)C2CCC3(CC2)CN(C)C3)[nH]1 [Example 117, (S)-N-(1-(5-(7-methoxy-2-methylquinolin-6-yl)-1H-imidazol-2-yl)-7-(oxazol-2-yl)-7-oxoheptyl)-2-methyl-2-azaspiro[3.5]nonane-7-carboxamide] | 21 nM | 320 nM | 320 nM | 1.4 nM | 680 nM | 0.82 nM | 5.8 nM | – | –
14 | COc1cc(-c2cnc([C@@H](N)CCCCCC(=O)c3ncco3)[nH]2)c(F)cn1 [Example 129, (S)-7-amino-7-(5-(5-fluoro-2-methoxypyridin-4-yl)-1H-imidazol-2-yl)-1-(oxazol-2-yl)heptan-1-one] | 2300 nM | 1600 nM | 2900 nM | 16 nM | ≥ 45000 nM | 16 nM | 100 nM | – | –
15 | CCN1CCC2(CC1)C[C@@H]2C(=O)N[C@@H](CCCCCC(=O)c1ccon1)c1cc(-c2cc3ccc(C)nc3cc2OC)on1 [Example 145, (S)-6-ethyl-N-((S)-7-(isoxazol-3-yl)-1-(5-(7-methoxy-2-methylquinolin-6-yl)isoxazol-3-yl)-7-oxoheptyl)-6-azaspiro[2.5]octane-1-carboxamide] | 5.1 nM | 49 nM | 66 nM | 4.2 nM | > 900 nM | 3.4 nM | 14 nM | – | –
16 | N#Cc1nc(-c2ccc(F)cc2)[nH]c1[C@@H](N)CCCCCC(=O)c1ncco1 [Example 185, (S)-5-(1-amino-7-(oxazol-2-yl)-7-oxoheptyl)-2-(4-fluorophenyl)-1H-imidazole-4-carbonitrile] | 6700 nM | 250 nM | 690 nM | 3.9 nM | ≥ 45000 nM | 2.9 nM | 15 nM | – | –
17 | CN(C)CC(=O)N[C@@H](CCCCCC(=O)c1ncco1)c1[nH]c(-c2ccc(F)cc2)nc1C#N [Example 186, (S)-N-(1-(4-cyano-2-(4-fluorophenyl)-1H-imidazol-5-yl)-7-(oxazol-2-yl)-7-oxoheptyl)-2-(dimethylamino)acetamide] | 220 nM | 12 nM | 21 nM | 0.39 nM | ≥ 45000 nM | 0.28 nM | 1.7 nM | – | –
18 | N#Cc1nc(-c2ccc(F)cc2)oc1[C@@H](N)CCCCCC(=O)c1ncco1 [Example 189, (S)-5-(1-amino-7-(oxazol-2-yl)-7-oxoheptyl)-2-(4-fluorophenyl)oxazole-4-carbonitrile] | 25000 nM | 3000 nM | 7400 nM | 45 nM | ≥ 45000 nM | 26 nM | 250 nM | – | –
19 | CN(C)CC(=O)N[C@@H](CCCCCC(=O)c1ncco1)c1oc(-c2ccc(F)cc2)nc1C#N [Example 190] | 3200 nM | 240 nM | 260 nM | 3.2 nM | ≥ 45000 nM | 4.6 nM | 21 nM | – | –
20 | N[C@@H](CCCCCC(=O)c1ccon1)c1nc(Cl)c(-c2ccc(F)cc2)[nH]1 [Example 193, (S)-7-amino-7-(4-chloro-5-(4-fluorophenyl)-1H-imidazol-2-yl)-1-(isoxazol-3-yl)heptan-1-one] | 1600 nM | 130 nM | 1800 nM | 1.8 nM | ≥ 45000 nM | 1.8 nM | 7.4 nM | – | –
